# Experimental data as given in PMC10892409, “Exploring Ocimum basilicum’s Secondary Metabolites: Inhibition and Molecular Docking against Rhynchophorus ferrugineus for Optimal Action” (Plants, 2024).
# Values joined by “and” are separate entries in the source; they are usually repeats but may differ in a detail not shown here. Equal values may be shown once. Read-outs that look alike come from different tables or passages of the source.
# Key:
# [1] = test system: R. ferrugineus adults; experiment: Antifeedant/insecticidal test on adults with treated sugarcane stem (probit LC50); type: in vivo, Rhynchophorus ferrugineus; settings: after 1 day of treatment, 95% confidence limits in brackets
# Procedure: (§1) Over the course of 40 days, an O. basilicum cell suspension was cultivated in this investigation, and then the extract was obtained. […] Long segments of sugarcane stem were employed in the insect breeding lab at King Faisal University’s Research and Training Center to raise adult R. ferrugineus larvae. For this experiment, we used a topical application technique with larvae stored at 4 °C for five minutes to test the extract’s activity. Using a hand-operated micro-applicator (Burkard Manufacturing Co., Ltd., Hertfordshire, UK, collected using a […] micro-syringe), extracts at escalating ratios (10 µL) were injected into the dorsal surface of the larvae (Ito Corp.; MS-N50, Shizuoka, Japan). Five larvae per box in a series of three replicates were fed on sugarcane stem pieces measuring 10 cm in length. The LD50 was calculated by measuring the percentage of dead larvae at 24, 48, 72, and 96 h following a topical application. The antifeedant impact was determined in adults by giving them 10 cm sugarcane stem segments cut in half longitudinally. Long strips of sugarcane stem (32 cm^2) were immersed in the previous serial extract and compound concentration (10 mL) for ten seconds before they were dried in ambient air using a plastic box. Each box included a new pair of larvae (a male and a female). Ten sets of each treatment were performed. Data on how well the subjects ate were evaluated at 24, 48, 72, and 96 h.
# (§2) The tissue culture parameters were calculated quantitatively from three independent sets of samples, and the mean SD was used to describe the findings. Toxicity parameters were determined quantitatively using a 10-replicate sample, and means and standard deviations were used to present the data. The median dosage obtained from a dose–response regression was used to calculate the LC50 value. By analyzing the comparative growth rate vs. the crude extract logarithm using least squares regression, the range of LC50 was calculated with 95% confidence. A simple variance study was performed on the increased weight and enzymatic activity data (ANOVA). The distinction between the means was accomplished using the Student–Newman–Keuls (SNK) test. Additionally, SPSS version 25 was used to find p < 0.05 significant deviations from the mean.
# [2] = target: T1, GABA-T (Rhynchophorus ferrugineus, UniProt A0A834I2E4); experiment: In vivo GABA-T inhibition in treated fourth-instar larvae; settings: fourth-instar larvae treated 24 h
# T1 sequence (A0A834I2E4 28-494): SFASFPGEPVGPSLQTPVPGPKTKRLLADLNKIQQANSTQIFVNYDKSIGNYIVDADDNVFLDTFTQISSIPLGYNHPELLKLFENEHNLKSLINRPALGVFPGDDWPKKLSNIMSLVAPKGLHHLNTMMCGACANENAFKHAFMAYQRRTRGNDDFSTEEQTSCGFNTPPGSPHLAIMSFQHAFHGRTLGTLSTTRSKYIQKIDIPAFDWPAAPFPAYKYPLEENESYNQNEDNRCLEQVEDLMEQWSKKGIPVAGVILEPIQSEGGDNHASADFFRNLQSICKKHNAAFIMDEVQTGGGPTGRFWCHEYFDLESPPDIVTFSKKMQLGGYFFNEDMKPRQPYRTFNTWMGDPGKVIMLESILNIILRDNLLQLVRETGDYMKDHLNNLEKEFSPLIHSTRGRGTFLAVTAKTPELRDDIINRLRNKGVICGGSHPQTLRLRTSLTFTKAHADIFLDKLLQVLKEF
# Procedure: The enzyme crude extract (25 μL) added to a solution included Tris-HCl, α-ketoglutarate, 2-mercaptoethanol, β-NAD, and GABA (50, 2, 20, and 3, respectively) at a volume of 1525 μL. Finally, 30 μL of tritonx100 ((1%, (v/v)) was added to the prior combination. We used 30 min of incubation at between 25 and 30 °C. Additionally, we used an ELISA plate reader to determine the absorbance of the combination at 340 nm (Multiskan SkyHigh Microplate Spectrophotometer). Specific activities of GABA-T were measured as OD 340/mg of protein·h.
# [3] = test system: ALPs; experiment: In vitro ALP inhibition, larval homogenate; type: biochemical, Rhynchophorus ferrugineus; settings: for IC50 ALPs in vitro: fourth-instar larvae preparation
# Procedure: (§3) The R. ferrugineus were homogenized larvae in a buffer (sodium phosphate, 40 mM, and pH 7.4); then, sodium chloride (10 mM dissolved in 1% (w/v) triton X-100) was added. During centrifugation (Sigma 3–30 KS), the homogenate was chilled to 4 °C and spun at a speed of 5000 rpm (20 min). The supernatant was either immediately put into action for an enzymatic test or frozen and kept at […] for later use. Each test was repeated three times. The protein content was determined using the same protocol employed by Lowry with modification using protein extract (100 µL) combined with an alkaline copper solution and a Folin–Ciocalteu phenol reagent (2 mL and 200 µL, respectively). The intensity of the resulting blue hue was evaluated during 30 min of incubation at 25 °C. Using an ELISA plate reader and a BSA standard curve, we could calculate the protein concentration by analyzing the absorbance at 600 nm (Multiskan SkyHigh Microplate Spectrophotometer, Thermo Fisher Scientific, Waltham, MA, USA).
# (§4) Activities of ACPs and ALPs were evaluated using a modified version of the Asakura technique. The ACP test required incubating 100 μL of crude enzyme in a buffer of 650 μL of sodium acetate (pH: 5.0; 50 mM with ACPs) or 250 μL of Tris–HCl (at 50 mM; pH: 8.0 with ALPs) and p-nitrophenyl phosphate (5.5 mM). For 30 min; the various mixes were kept at 37 °C for incubation. Thereafter, 500 μL of NaOH (0.5 N) stopped the reaction. Using an ELISA plate reader, we determined the mixture’s 415 nm absorbance value (Multiskan SkyHigh Microplate Spectrophotometer). The ACP- and ALP-specific activity was estimated as OD 415/mg protein·h.
# [4] = test system: ALPs; experiment: In vivo ALP inhibition in treated fourth-instar larvae; design: species or system Rhynchophorus ferrugineus; settings: fourth-instar larvae treated 24 h
# Procedure: as §4
# (§5) Each enzyme’s in vivo impact was measured after treating larvae with an extract or pure chemicals. An inhibitor-free test combination served as a negative control. We determined the absorbance of the enzymes throughout a spectrum of wavelengths using a rapid reader for ELISA plates (Multiskan SkyHigh Microplate Spectrophotometer). Extracts and pure chemicals were used to treat R. ferrugineus larvae at previous serial concentrations, and their AChE, ACP, ALP, and GABA-T activity was tested in vivo using the methods outlined above. Larvae spent a day on leaf disks treated with chemicals or extract.
# [5] = target: T1, GABA-T; experiment: In vitro GABA-T inhibition, larval homogenate; type: biochemical; settings: fourth-instar larvae preparation, listed as salvianolic acid B
# Procedure: The R. ferrugineus were homogenized larvae in a buffer (sodium phosphate, 40 mM, and pH 7.4); then, sodium chloride (10 mM dissolved in 1% (w/v) triton X-100) was added. During centrifugation (Sigma 3–30 KS), the homogenate was chilled to 4 °C and spun at a speed of 5000 rpm (20 min). The supernatant was either immediately put into action for an enzymatic test or frozen and kept at 20 °C for later use. […] The protein content was determined using the same protocol employed by Lowry with modification [93] using protein extract (100 µL) combined with an alkaline copper solution and a Folin–Ciocalteu phenol reagent (2 mL and 200 µL, respectively). The intensity of the resulting blue hue was evaluated during 30 min of incubation at 25 °C. Using an ELISA plate reader and a BSA standard curve, we could calculate the protein concentration by analyzing the absorbance at 600 nm (Multiskan SkyHigh Microplate Spectrophotometer, Thermo Fisher Scientific, Waltham, MA, USA).
# The GABA-T activity was assessed with a modified version of the method published by [96]. The enzyme crude extract (25 μL) added to a solution included Tris-HCl, α-ketoglutarate, 2-mercaptoethanol, β-NAD, and GABA (50, 2, 20, and 3, respectively) at a volume of 1525 μL. […]
# [6] = test system: ACPs; experiment: In vivo ACP inhibition in treated fourth-instar larvae; design: species or system Rhynchophorus ferrugineus; settings: fourth-instar larvae treated 24 h
# Procedure: as §4, §5
# [7] = test system: ACPs; experiment: In vitro ACP inhibition, larval homogenate; type: biochemical, Rhynchophorus ferrugineus; settings: fourth-instar larvae preparation
# Procedure: as §3, §4
# [8] = test system: fourth-instar larvae of R. ferrugineus; experiment: Topical application (contact) to fourth-instar larvae (probit LD50); type: in vivo, Rhynchophorus ferrugineus; settings: after 1 day of treatment, 95% confidence limits in brackets
# Procedure: as §1, §2
# [9] = test system: AChE; experiment: In vitro AChE inhibition, larval homogenate (Ellman); type: biochemical, Rhynchophorus ferrugineus; settings: fourth-instar larvae preparation
# Procedure: as §3
# (§6) The enzyme AChE was assessed using a substrate of acetylthiocholine iodide and evaluated using 5,5′-dithiobis [2-nitrbenzoic acid] (DTNB), according to [94]. Each well contained a sodium phosphate buffer (140 µL) (pH: 8.0; 100 mM), DTNB (10 µL), extract (20 µL)/components at 1, 10, 50, 100, and 1000 µg/mL in DMSO and underwent 15 min of incubation at 25 °C. Acetylthiocholine (ATCh) was added to start the reaction (10 µL). The ATCh enzymatic hydrolysis produced a 5-thio-2-nitrobenzoate anion as a color (yellow) that was detected by measuring its wavelength, i.e., 412 nm, thereby allowing the researchers to track the rate of ATCh hydrolysis (15 min). Each response was performed three times on a microplate and examined using an ELISA plate reader to determine the 412 nm absorbance of the combination (Multiskan SkyHigh Microplate Spectrophotometer). The AChE-specific activity was measured as OD412/mg protein.h. based on observing the effect of raising the quantities of all of these compounds during the tests on the inhibition results, and the inhibitory concentration (IC50) was calculated. Then, a computer algorithm was used to determine the IC50 values (Version 9.01 of GraphPad Prism by Inc., 2020, San Diego, CA, USA).
# [10] = test system: AChE; experiment: In vivo AChE inhibition in treated fourth-instar larvae; design: species or system Rhynchophorus ferrugineus; settings: fourth-instar larvae treated 24 h
# Procedure: as §6, §5
# [11] = Rhynchophorus ferrugineus, 24 h, read-out: LC50
Compound,IC50 ALP in vitro [3] [µg/mL],IC50 ALPs in vivo [4] [µg/mL],IC50 ACPs in vivo [6],LD50 [8],IC50 AChE in vitro [9],IC50 AChE in vivo [10],"LC50 [1, 11] [µg/mL]",other results
Salvianolic acid B,105,194.6,< 330 µg/mL and 182.3 µg/mL,11.1 (10.1–12.18) µg/Larvae,117 ± 1.08 µg/mL,229.7 µg/mL,,LC50 [1]: 1195 (1121–1278) µg/mL; IC50 GABA-T in vivo [2]: 324.8 µg/mL; IC50 ALPs in vitro ([3]; listed as salvianolic acid B): < 200 µg/mL; IC50 GABA-T in vitro [5]: 197.2 µg/mL; IC50 ACPs in vitro ([7]; listed as salvianolic acid B): 98.2 µg/mL; LD50 ([8]; listed as salvianolic acid B): 11.1 µg/Larvae; IC50 AChE in vitro ([9]; listed as salvianolic acid B): 116.7 µg/mL
O=C(/C=C/c1ccc(O)c(O)c1)O[C@H](Cc1ccc(O)c(O)c1)C(=O)O [Rosmarinic acid],150,256.7,< 330 µg/mL and 258.7 µg/mL,11.8 (11.2–12.5) µg/Larvae,119.2 µg/mL and 119 ± 1.14 µg/mL,235.1 µg/mL and 235 ± 1.14 µg/mL,1430,IC50 ALPs in vitro [3]: < 200 µg/mL; IC50 ACPs in vitro [7]: 139.7 µg/mL
C[C@H]1[C@H](C)CC[C@]2(C(=O)O)CC[C@]3(C)C(=CC[C@@H]4[C@@]5(C)CC[C@H](O)C(C)(C)[C@@H]5CC[C@]43C)[C@H]12 [Ursolic acid],141,,,14.9 (13.6–15.4) µg/Larvae,170 ± 1.52 µg/mL,458 ± 1.52 µg/mL,1120,IC50 ALPs in vitro ([3]; listed as ursolic acid): < 200 µg/mL; IC50 ALPs in vivo ([4]; listed as ursolic acid): 476.9 µg/mL; IC50 ACPs in vivo ([6]; listed as ursolic acid): 392.4 µg/mL; IC50 ACPs in vitro ([7]; listed as ursolic acid): 167.8 µg/mL; LD50 ([8]; listed as ursolic acid): 14.9 µg/Larvae; IC50 AChE in vitro ([9]; listed as ursolic acid): 169.5 µg/mL; IC50 AChE in vivo ([10]; listed as ursolic acid): 457.8 µg/mL
